From patent US8168221B2, “Composition 064” (AstraZeneca AB, priority 2007, dated 2012)

What was measured:
[1] = Compound (I) forced degradation study, solutions exposed to light at room temperature; assay type: physicochemical
Method: (§1) The Compound (I), Compound (I) formyl hydrazide, and total impurities contents were determined using High Performance Liquid Chromatography HPLC. 10 μL sample was injected into a mobile phase comprising water/acetonitrile/formic acid in the ratios 900:100:2 (Eluent A)/400:600:2 (Eluent B), as defined by the gradient program in Table 1 below. Separation of impurities was performed using a column 15 cm long×4.6 mm internal diameter packed with Waters Symmetry C8 stationary phase having 3.5 μm particle size. […] “ND” in Tables 2 and 3 refers to “not determined”

[2] = Compound (I) forced degradation study, aqueous buffer solutions protected from light; assay type: physicochemical; conditions: for Compound (I) formyl hydrazide, % w/w (24 hours) / Compound (I) hydrazide, % w/w (24 hours) / Compound (I), % w/w (24 hours) / Compound (I), % w/w (initial) / Compound (I) formyl hydrazide, % w/w (initial): protected from light; for Compound (I), % w/w (initial): 0.5 mg/mL
Method: as §1

Compound: COc1nc(C)cnc1NS(=O)(=O)c1cccnc1-c1ccc(-c2nnco2)cc1 [Compound (I), N-(3-methoxy-5-methylpyrazin-2-yl)-2-(4-[1,3,4-oxadiazol-2-yl]phenyl)pyridine-3-sulphonamide]
- Compound (I) formyl hydrazide, % w/w (24 hours) ([1]; pH 1.2, 24 hours): 16.35 % w/w
- Compound (I) hydrazide, % w/w (24 hours) ([1]; pH 1.2, 24 hours): ND/0.32 % w/w
- Compound (I), % w/w (24 hours) ([1]; pH 1.2, 24 hours): 82.33 % w/w
- Compound (I) formyl hydrazide, % w/w (initial) ([1]; pH 1.2, initial): 1.39 % w/w
- Compound (I), % w/w (initial) ([1]; pH 1.2, initial): 98.82 % w/w
- Compound (I) formyl hydrazide, % w/w (24 hours) ([1]; pH 3.0, 24 hours): 0.30 % w/w
- Compound (I), % w/w (24 hours) ([1]; pH 3.0, 24 hours): 95.76 % w/w
- Compound (I) formyl hydrazide, % w/w (initial) ([1]; pH 3.0, initial): 0.05 % w/w
- Compound (I), % w/w (initial) ([1]; pH 3.0, initial): 99.39 % w/w
- Compound (I), % w/w (24 hours) ([1]; pH 7.2, 24 hours): 97.04 % w/w
- Compound (I), % w/w (initial) ([1]; pH 7.2, initial): 98.78 % w/w
- Compound (I) formyl hydrazide, % w/w (24 hours) ([1]; pH 11.0, 24 hours): 0.15 % w/w
- Compound (I), % w/w (24 hours) ([1]; pH 11.0, 24 hours): 98.66 % w/w
- Compound (I) formyl hydrazide, % w/w (initial) ([1]; pH 11.0, initial): < 0.05 % w/w
- Compound (I), % w/w (initial) ([1]; pH 11.0, initial): 99.91 % w/w
- hydrolytic degradation (in words) ([2]; low and high pH): subject to hydrolytic degradation at low and high pH
- Compound (I) formyl hydrazide, % w/w (24 hours) ([2]; pH 1.2, 37° C.): 32.16 % w/w
- Compound (I) hydrazide, % w/w (24 hours) ([2]; pH 1.2, 37° C.): 47.34 % w/w
- Compound (I), % w/w (24 hours) ([2]; pH 1.2, 37° C.): 0.89 % w/w
- Compound (I), % w/w (initial) ([2]; pH 1.2, 37° C.): 96.69/ % w/w
- Compound (I) formyl hydrazide, % w/w (initial) ([2]; pH 1.2, 37° C.): 1.58/ % w/w
- Compound (I) formyl hydrazide, % w/w (24 hours) ([2]; pH 1.2, RT): 59.83 % w/w
- Compound (I) hydrazide, % w/w (24 hours) ([2]; pH 1.2, RT): 13.87 % w/w
- Compound (I), % w/w (24 hours) ([2]; pH 1.2, RT): 23.04 % w/w
- Compound (I), % w/w (initial) ([2]; pH 1.2, RT): 97.57/ % w/w
- Compound (I) formyl hydrazide, % w/w (initial) ([2]; pH 1.2, RT): 1.99/ % w/w
- Compound (I) formyl hydrazide, % w/w (24 hours) ([2]; pH 3.0, 37° C.): 3.09 % w/w
- Compound (I), % w/w (24 hours) ([2]; pH 3.0, 37° C.): 96.56 % w/w
- Compound (I), % w/w (initial) ([2]; pH 3.0, 37° C.): 99.43/ % w/w
- Compound (I) formyl hydrazide, % w/w (24 hours) ([2]; pH 3.0, RT): 1.66 % w/w
- Compound (I) hydrazide, % w/w (24 hours) ([2]; pH 3.0, RT): <0.05 % w/w
- Compound (I), % w/w (24 hours) ([2]; pH 3.0, RT): 84.70 % w/w
- Compound (I), % w/w (initial) ([2]; pH 3.0, RT): 99.45/ % w/w
- Compound (I) hydrazide, % w/w (24 hours) ([2]; pH 7.2, 37° C.): <0.05 % w/w
- Compound (I), % w/w (24 hours) ([2]; pH 7.2, 37° C.): 99.17 % w/w
- Compound (I), % w/w (initial) ([2]; pH 7.2, 37° C.): 98.73/ % w/w
- Compound (I) hydrazide, % w/w (24 hours) ([2]; pH 7.2, RT): <0.05 % w/w
- Compound (I), % w/w (24 hours) ([2]; pH 7.2, RT): 99.45 % w/w
- Compound (I), % w/w (initial) ([2]; pH 7.2, RT): 99.14/ % w/w
- Compound (I) formyl hydrazide, % w/w (24 hours) ([2]; pH 11.0, 37° C.): 4.16 % w/w
- Compound (I) hydrazide, % w/w (24 hours) ([2]; pH 11.0, 37° C.): <0.05 % w/w
- Compound (I), % w/w (24 hours) ([2]; pH 11.0, 37° C.): 94.50 % w/w
- Compound (I), % w/w (initial) ([2]; pH 11.0, 37° C.): 99.17/ % w/w
- Compound (I) formyl hydrazide, % w/w (24 hours) ([2]; pH 11.0, RT): 1.35 % w/w
- Compound (I), % w/w (24 hours) ([2]; pH 11.0, RT): 94.21 % w/w
- Compound (I), % w/w (initial) ([2]; pH 11.0, RT): 98.68/ % w/w
- Compound (I) formyl hydrazide, % w/w (initial) ([2]; pH 11.0, RT): 0.07/ % w/w
